Measurements: patent US20060068444A1, “Compositions and methods for detecting cyclic analogs of hPTH” (Zelos Therapeutics, Inc, priority 2004, published 2006)
Positions of bridges follow the written chain, without caps; N, C: chain ends. No end group written: not given here.

Legend:
[1] = system: antibodies which have binding specificity for cyclic analogs of hPTH (HRP-labeled anti-C-terminal antibody plus biotinylated anti-N-terminal antibody); assay: two-site sandwich ELISA for [Leu^27]cyclo(Glu^22-Lys^26)hPTH-(1-31); design: species or system rabbit; conditions: for detection in the two-site sandwich ELISA (cross-reaction), OD at 450 nm: peptides at 10,000, 1,000 and 100 pg/ml in BSA based buffer matrix, FIG. 3
Procedure: Streptavidin was weighed and diluted to 20 mg/L with phosphate buffer, 0.2 ml of this solution was added to each well of Corning® 96 Well Polystyrene Microplate. The plates were incubated at room temperature for 18-22 hours. The plates were then washed and a stabile/blocking buffer containing BSA was added. The plates were again incubated at room temperature for four hours. The plates were finally dried at <30% humidity. […] The peptide was diluted with a bovine serum albumin and normal bovine serum based buffer matrix to a final concentration of 1600 pg/ml, 400 pg/ml, 100 pg/ml, 25 pg/ml and 6 pg/ml. […] The above antigen and antibodies were incubated in the streptavidin coated well for 3 hours at room temperature with shaking at 170 rpm. After incubation, each well was washed with an ELISA wash buffer. 200 μL of tetra methyl benzidine (TMB) was then added into each well. The wells were incubated for 20 min at room temperature and then 100 μL of a stop solution was added into each well. The Microplates were read with a microtiter plate reader (VERSAmaxTM, Molecular Device, Inc.) at an absorption wavelength of 450 nm. A standard curve was obtained by plotting the optical density (OD) at 450 nm against the correspondent Ostabolin-C standard concentration. […] The OD at 450 nm values were read by a microtiter plate reader ([…], Molecular Device, Inc.) (FIG. 3).

adenylyl cyclase (AC) = conditions: cited from earlier work
ovariectomized rat model = conditions: cited from earlier work

standard curve, optical density (OD) at 450 nm against standard concentration ([1]; peptide standards 1600, 400, 100, 25 and 6 pg/ml, FIG. 2)	detection in the two-site sandwich ELISA (cross-reaction), OD at 450 nm [1]	Substance	AC stimulating activity (adenylyl cyclase (AC))	restoration of bone loss (ovariectomized rat model)
dose responsive standard curve	dose responsive manner	[Leu^27]cyclo(Glu^22-Lys^26)hPTH-(1-31) (SVSEIQLMHNLGKHLNSMERVEWLRKLLQDV-NH2; lactam 22-26; N-terminus assumed; SMILES CC[C@H](C)[C@H](NC(=O)[C@H](CCC(=O)O)NC(=O)[C@H](CO)NC(=O)[C@@H](NC(=O)[C@@H](N)CO)C(C)C)C(=O)N[C@@H](CCC(N)=O)C(=O)N[C@@H](CC(C)C)C(=O)N[C@@H](CCSC)C(=O)N[C@@H](Cc1c[nH]cn1)C(=O)N[C@@H](CC(N)=O)C(=O)N[C@@H](CC(C)C)C(=O)NCC(=O)N[C@@H](CCCCN)C(=O)N[C@@H](Cc1c[nH]cn1)C(=O)N[C@@H](CC(C)C)C(=O)N[C@@H](CC(N)=O)C(=O)N[C@@H](CO)C(=O)N[C@@H](CCSC)C(=O)N[C@@H](CCC(=O)O)C(=O)N[C@@H](CCCNC(=N)N)C(=O)N[C@H](C(=O)N[C@H]1CCC(=O)NCCCC[C@@H](C(=O)N[C@@H](CC(C)C)C(=O)N[C@@H](CC(C)C)C(=O)N[C@@H](CCC(N)=O)C(=O)N[C@@H](CC(=O)O)C(=O)N[C@H](C(N)=O)C(C)C)NC(=O)[C@H](CCCNC(=N)N)NC(=O)[C@H](CC(C)C)NC(=O)[C@H](Cc2c[nH]c3ccccc23)NC1=O)C(C)C) [cyclic analog of hPTH, cyclized between Glu^22 and Lys^26]	–	–
–	not able to detect	hPTH-(1-31)	–	–
–	–	hPTH-(1-31)-NH2	has only AC stimulating activity	fully active
–	not able to detect	hPTH-(1-34)	–	–

Substance	standard curve, optical density (OD) at 450 nm against standard concentration ([1]; peptide standards 1600, 400, 100, 25 and 6 pg/ml, FIG. 2)	detection in the two-site sandwich ELISA (cross-reaction), OD at 450 nm [1]	AC stimulating activity (adenylyl cyclase (AC))	restoration of bone loss (ovariectomized rat model)
hPTH-(1-84)	–	not able to detect	–	–
